In patent publication US20210121482A1, “WITHANOLIDES FOR THE TREATMENT OF CACHEXIA” (University of Louisville Research Foundation, Inc., priority 2019, published 2021):

What was measured:
gonadal fat pad = test: Qualitative assessment of gonadal fat; assay type: in vivo, mice
Excerpt: Ovarian cancer progression is often associated with the specific loss of the gonadal fat pad. Thus, an attempt was made to quantify the amount of adipose tissue present in the gonadal region at the time of tissue collection post-euthanization. The severe reduction in the gonadal fat pad rendered accurate measurement of gonadal adipose tissue improbable. Further, in some mice, there was a complete absence of gonadal fat.
1. When the ovaries were embedded in adipose tissue and not readily identifiable without dissection through the fat pad, the mouse was scored “Abundant”. All mice in the control group were deemed to have an abundant amount of gonadal fat, whereas the vehicle treated group had no gonadal fat present, consistent with published reports linking specific changes in the gonadal fat pad to the progression of ovarian cancer.
2. When adipose tissue was present but in such a scant quantity that we could not accurately quantify the mass, the amount of gonadal fat was marked as “Small Amount”.

[1] = test system: TA muscle myofibers (MyHC I, IIa, IIb); test: Skeletal muscle fiber-type immunostaining; assay type: in vivo, mice
Description: Skeletal Muscle Fiber-type Immunostaining: To determine the composition of different types and gross composition of skeletal muscle fibers, 10 μm thick transverse sections were made from TA muscles, a hydrophobic boundary was drawn around the section, and then blocked with 5% goat serum and 2% bovine serum albumin (BSA) in PBS for 30 minutes. The sections were then incubated for one hour with monoclonal antibodies against myosin heavy chain (MyHC) isoforms type I, IIa, and IIb using clone BA-D5, […], and BF-F3, respectively (Developmental Studies Hybridoma Bank, Iowa City, Iowa, USA). The following secondary antibodies were then used for detection after 1-2 hours of incubation period: anti-Mouse IgG2b (γ2b) CF™ 350 antibody produced in goat, anti-Mouse IgG1 (yl) CF™ 568 antibody produced in goat, and Alexa Fluor-488 goat anti-mouse IgM. Fluorescence images were captured with a Nikon TiE 3000 inverted microscope, the single-color channels were merged, and percentage of each fiber-type in whole muscle section was recorded. Nonspecific background staining was performed using the above protocol but omitting the inclusion of the primary antibodies. Antibodies BA-D5, SC-71, and BF-F3 were deposited to the DSHB by Schiaffino, S. (DSHB Hybridoma Product BA-D5, SC-71, and BF-F3).

[2] = test system: ovarian cancer-induced cachexia; test: Grip strength, tumor-free and tumor-bearing mice (Example 2); assay type: in vivo; details: terminal week
Description: Grip Strength Measurements: Before assessment, mice were weighed on a commercially available digital scale. Forepaw and total grip strength of mice were measured using a digital grip strength meter (Columbus Instruments, Columbus, Ohio, USA) and then normalized by total body weight. Before the beginning of the test, the mice were acclimatized for five minutes. The mouse was allowed to grasp the total paw pull-bar assembly, and in a separate experiment the forepaw pull-bar assembly. The mouse was then gently drawn with constant force in a straight line away from the device until the mouse could no longer grasp the bar. Force at time of release was recorded as the peak tension. Each mouse was tested five times with a delay of 20-40 seconds between each testing. The mean peak tension was calculated from the recordings normalized by total body weight.
Grip Strength Measurements: as in Example 1.

[3] = test system: left ventricular systolic and diastolic function; test: Echocardiography; assay type: in vivo, mice
Description: Left ventricular (LV) systolic and diastolic function were evaluated by transthoracic echocardiography using a Vevo 3100 system and a 40 MHz linear probe (FUJIFILM VisualSonics Inc., Toronto, Ontario, Canada). Mice were anesthetized with isoflurane, maintained at an equivalent surgical depth of anesthesia (induction chamber at 5% with 1.5-2.0 L/min 02 flow, followed by 1.5-2.0% with 1.5-2.0 L/min 02 flow), and placed in the supine position. The skin over the thorax was shaved and then briefly subjected to a depilatory cream. Body temperature was maintained at 37-38° C., and heart rate was monitored using the accompanying Vevo Imaging Station. Briefly, variables that represent diastolic function (E/A ratio, isovolumetric relaxation time (IVRT), and (E/e′) were measured during the resting condition from an apical four-chamber view with conventional pulsed wave tissue Doppler. The E/A ratio was calculated from the peak velocity flow in early diastole (the E wave) to the peak velocity flow in late diastole caused by atrial contraction (the A wave) during resting conditions.
An image was captured along the parasternal short axis and analyzed offline using the Vevo® Lab software. Standard measures of LV structure [i.e., LV internal diameter (LVID) and LV posterior wall thickness (PWT)] and function [i.e., stroke volume (SV), cardiac output (CO), and ejection fraction (EF)] were obtained along the parasternal short axis during resting and stress conditions. In M-mode, wall thickness and chamber dimensions across the sample line were used to calculate anatomical and functional parameters. End-diastolic and end-systolic volumes were estimated from LVID […]. Results from five cardiac cycles during expiration were averaged together and used for between-group and within-group comparisons. Continuous ECG and heart rate monitoring were performed over a period of one hour while the other measurements were collected.

Ang II = test: Plasma Ang II ELISA; assay type: in vivo, mice; details: tumor-bearing
Description: Plasma Ang II levels were measured with an enzyme-linked immunosorbent assay (ELISA). Blood samples were collected in tubes containing ethylenediaminetetraacetic acid (EDTA) (25 mM), o-phenanthroline (0.44 mM), pepstatin A (0.12 mM), and p-hydroxymercuribenzoic acid (1 mM) and then centrifuged at 1200×g for 10 min. The plasma was collected and stored at −80° C. until further processing. Ang II levels were quantified by using a commercially available ELISA kit according to the manufacturer's instructions (Sigma-Aldrich Catalog #MAK190).

[4] = Body and organ weight, A2780 xenograft mice (Example 1); details: for BW Week 2 / BW Week 3 / BW Week 1 / Initial BW / Kidney weight normalized / Liver weight normalized / Spleen weight normalized: tumor-bearing; for Initial BW: baseline, before treatment
[5] = tumor-bearing, 2 and 4 mg/kg, vs tumor-bearing vehicle
[6] = WFA 2 mg/kg IP every three days
[7] = WFA 6 mg/kg IP every three days

CC1=C(CO)C(=O)O[C@@H]([C@@H](C)[C@H]2CC[C@H]3[C@@H]4C[C@H]5O[C@]56[C@@H](O)C=CC(=O)[C@]6(C)[C@H]4CC[C@]23C)C1 [WFA, (4β,5β,6β,22R)-4,27-Dihydroxy-5,6:22,26-diepoxyergosta-2,24-diene-1,26-dione]
Gonadal Fat: Absent (mice scored/group) (gonadal fat pad; WFA 2 mg/kg): 0 | Gonadal Fat: Abundant (mice scored/group) (gonadal fat pad; WFA 2 mg/kg): 0 | Gonadal Fat: Present (mice scored/group) (gonadal fat pad; WFA 2 mg/kg): 4/5 | Gonadal Fat: Small Amount (mice scored/group) (gonadal fat pad; WFA 2 mg/kg): 1/5 | Gonadal Fat: Absent (mice scored/group) (gonadal fat pad; WFA 6 mg/kg): 0 | Gonadal Fat: Abundant (mice scored/group) (gonadal fat pad; WFA 6 mg/kg): 0 | Gonadal Fat: Present (mice scored/group) (gonadal fat pad; WFA 6 mg/kg): 1/4 | Gonadal Fat: Small Amount (mice scored/group) (gonadal fat pad; WFA 6 mg/kg): 3/4 | proportion of Type IIb myofibers in TA muscle ([1]; 2 and 6 mg/kg, vs control and vehicle treated groups): significantly reduced in the WFA treated groups in a dose-dependent manner | percentage of Type IIa myofibers in TA muscle ([1]; 2 and 6 mg/kg, vs vehicle treated and control groups): significant increase in Type IIa myofibers | percentage of Type I myofibers in TA muscle ([1]; all groups): no significant differences were found | percentage of Type IIx myofibers in TA muscle ([1]; all groups): no significant differences were elucidated upon post hoc analysis | forelimb and total grip strengths ([2]; tumor-bearing mice, 2 and 4 mg/kg, vs tumor-bearing vehicle): significantly increased compared to the tumor-bearing vehicle-treated | total grip strength ([2]; tumor-free mice, 4 mg/kg, vs tumor-free vehicle): significantly improved the total grip strength of the tumor-free mice | forelimb grip strength ([2]; tumor-free mice, 2 and 4 mg/kg, vs tumor-free vehicle): significantly improved the forelimb grip strength of tumor-free mice | isovolumetric relaxation time (IVRT) ([3]; WFA vs vehicle within tumor-free or tumor-bearing groups): no significant differences within the tumor-free or tumor-bearing groups | cardiac output (CO) ([3]; tumor-bearing mice, WFA treatment): similarly normalized | LV mass [3, 5]: significant increase in LV mass | diastolic dysfunction (E/A ratio, E/e′ ratio) [3, 5]: partially improved | fractional shortening (FS) ([3]; tumor-bearing, WFA 2 mg/kg): 57.8±3.6% | fractional shortening (FS) ([3]; tumor-bearing, WFA 4 mg/kg): 55.3±3.2% | diastolic function ([3]; tumor-free animals): did not affect diastolic function in tumor-free animals | HR and CO ([3]; tumor-free mice, WFA treatment): did not have any effect on HR or CO in tumor-free mice | heart rate ([3]; tumor-free or tumor-bearing WFA-treated groups vs tumor-free vehicle): No significant differences in heart rate | LV mass ([3]; tumor-free, vehicle vs either dose of WFA): No significant difference in LV mass | plasma Ang II levels (Ang II; WFA 2 mg/kg): 2.15 ± 0.015 ng/mL | plasma Ang II levels (Ang II; WFA 4 mg/kg): 2.07 ± 0.08 ng/mL | body weight fold change ([4]; 2 and 6 mg/kg, at termination of study, all groups compared): No statistically significant difference between the groups | BW Week 2 [4, 6]: 20.43 ± 2.43 g | BW Week 3 [4, 6]: 22.68 ± 2.53 g | BW Week 1 ([4]; WFA 2 mg/kg group): 19.98 ± 2.33 g | Initial BW ([4]; WFA 2 mg/kg group): 19.14 ± 1.50 g | Kidney weight normalized ([4]; WFA 2 mg/kg): 4.95 ± 0.79 mg/g | Liver weight normalized ([4]; WFA 2 mg/kg): 47.16 ± 15.88 mg/g | Spleen weight normalized ([4]; WFA 2 mg/kg): 2.20 ± 1.74 mg/g | BW Week 2 [4, 7]: 21.37 ± 1.32 g | BW Week 3 [4, 7]: 23.57 ± 1.23 g | BW Week 1 ([4]; WFA 6 mg/kg group): 20.70 ± 1.35 g | Initial BW ([4]; WFA 6 mg/kg group): 19.60 ± 0.76 g | Kidney weight normalized ([4]; WFA 6 mg/kg): 5.45 ± 0.49 mg/g | Liver weight normalized ([4]; WFA 6 mg/kg): 41.18 ± 3.60 mg/g | Spleen weight normalized ([4]; WFA 6 mg/kg): 2.78 ± 1.45 mg/g
